Assays:
[1] = test system: PCP-induced deficits in sensorimotor gating; experiment: Prepulse inhibition of startle response; reversal of PCP-induced deficits in sensorimotor gating; conditions: for inhibition of startle response (prepulse inhibition): difference relative to rats receiving PCP alone and/or N-acetylcysteine 30 mg/kg: compound pretreatment 60 min, prepulse 2-15 dB above background, Fisher LSD p<0.05
[2] = test system: cocaine-induced reinstatement; experiment: Extinction/reinstatement paradigm: cocaine-induced reinstatement of lever pressing; type: in vivo; conditions: rats, cocaine 10 mg/kg IP
[3] = test system: compulsive drug-seeking; conditions: rodents, preclinical studies; cited from earlier work
[4] = human subjects; cited from earlier work
[5] = test system: cocaine use and craving; conditions: cocaine abusers receiving NAC, clinical data; cited from earlier work
[6] = rats, phencyclidine 1.25 mg/kg SC

O=C1CNC(=O)[C@@H](CSC(c2ccccc2)(c2ccccc2)c2ccccc2)N1 (stereo in doubt) [Compound 3c-a, 3-Tritylsulfanylmethyl-piperazine-2,5-dione]
melting point: 225 to 227 °C

O=C1N[C@@H](CSSc2ccccc2)C(=O)N2CCC[C@H]12 [Compound 3b-c, (3R,8aR)-3-((phenyldisulfanyl)methyl)hexahydropyrrolo[1,2-a]pyrazine-1,4-dione]
melting point: 120 °C

O=C1CNC(=O)[C@H](CS)N1 [Compound 4a, 2,5-piperazinedione, 3-(mercaptomethyl)-]
melting point: 258 °C
inhibition of startle response (prepulse inhibition): difference relative to rats receiving PCP alone and/or N-acetylcysteine 30 mg/kg [1, 6]: significant difference

CC(C)[C@H]1NC(=O)[C@H](CS)NC1=O [Compound 4d, (6R)-3-isopropyl-6-(mercaptomethyl)piperazine-2,5-dione]
melting point: > 275 °C

CC(C)(C)SC[C@H]1NC(=O)[C@H](CS)NC1=O [Compound 4e, (6R)-3-(tert-butylthiomethyl)-6-(mercaptomethyl)piperazine-2,5-dione]
melting point: > 280 °C (dec.)

CCOC1=N[C@@H](CS)C(OCC)=NC1 [Compound 5a, (3,6-Diethoxy-2,5-dihydro-,pyrazin-2-yl)-methanethiol]
inhibition of startle response (prepulse inhibition): difference relative to rats receiving PCP alone and/or N-acetylcysteine 30 mg/kg [1, 6]: significant difference

CCOC1=N[C@@H](CSSC[C@H]2N=C(OCC)CN=C2OCC)C(OCC)=NC1 [Compound 5a-D, Bis[(3,6-Diethoxy-2,5-dihy-dro-pyrazin-2-yl)-methanethiol]]
inhibition of startle response (prepulse inhibition): difference relative to rats receiving PCP alone and/or N-acetylcysteine 30 mg/kg [1, 6]: significant difference
cocaine-induced reinstatement ([2]; 1 mg/kg (p.o.), comparable to 30 mg/kg NAC): sufficient to block cocaine-induced reinstatement

CCOC1=N[C@@H](CSCC)C(=O)N[C@@H]1Cc1ccccc1 [Compound 6b-b, (3R,6R)-6-Benzyl-5-ethoxy-3-(ethylthiomethyl)-1,6-dihydropyrazin-2(3H)-one]
melting point: 118 °C

O=C1CNC(=O)[C@H](CSSC[C@@H]2NC(=O)CNC2=O)N1 [Compound 7a, Bis[2,5-Piperazinedione, 3-(mercaptomethyl)-]]
inhibition of startle response (prepulse inhibition): difference relative to rats receiving PCP alone and/or N-acetylcysteine 30 mg/kg [1, 6]: significant difference

O=C1CNC(=O)[C@H](CSSC[C@H]2NC(=O)[C@H](Cc3ccccc3)NC2=O)N1 [Compound 11-a-b]
inhibition of startle response (prepulse inhibition): difference relative to rats receiving PCP alone and/or N-acetylcysteine 30 mg/kg [1, 6]: significant difference

CC(C)C1NC(=O)[C@@H](CSSC[C@@H]2NC(=O)CNC2=O)NC1=O (stereo partly shown) [Compound 11-a-d]
inhibition of startle response (prepulse inhibition): difference relative to rats receiving PCP alone and/or N-acetylcysteine 30 mg/kg [1, 6]: significant difference

CC(=O)N[C@@H](CS)C(=O)O [N-acetyl cysteine]
compulsive drug-seeking [3]: effective in blocking compulsive drug-seeking
safety/tolerability profile [4]: favorable safety/tolerability profile
phencyclidine-induced deficits in sensorimotor gating ([1]; direct delivery into the brain (prefrontal cortex)): reverses phencyclidine-induced deficits in sensorimotor gating
sensorimotor gating (prepulse inhibition) after PCP ([1]; rats, N-acetyl cysteine 30 mg/kg po, pretreated 60 min, phencyclidine 1.25 mg/kg SC): failed to exhibit sensorimotor gating
cocaine-induced reinstatement ([2]; 30 mg/kg IP, responding 120 min): significant reduction
cocaine-induced reinstatement ([2]; 60 mg/kg IP, responding 120 min): significant reduction
cocaine-induced reinstatement ([2]; given orally): less effective
cocaine use and craving [5]: reduction in cocaine use and craving

c1ccc(C2(N3CCCCC3)CCCCC2)cc1 [PCP, phencyclidine, reference compound]
effect of PCP on prepulse inhibition ([1]; rats, pcp 0-2.0 mg/kg, FIG. 4): disrupt prepulse inhibition

— US8962692B2, “Cysteine and cystine prodrugs to treat schizophrenia and reduce drug cravings” (Marquette University, priority 2008, dated 2015)
